Experimental data reported in paper PMC8296573, “Synthesis and Biological Evaluation of Fingolimod Derivatives as Antibacterial Agents” (ACS Omega, 2021).
Where two headings read alike, the source gives them in different places.

Columns and labels:
[1] = system: S. aureus ATCC 25923; assay: Antibacterial activity, post-exposure on preformed 18-h-old biofilms; assay type: cell-based, Staphylococcus aureus; details: ± SD
Method in brief: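 Biofilms grown 18 h without compound, medium then replaced and compound added for a further 24 h. Planktonic OD and resazurin (20 μM final) fluorescence (ex 560/em 590 nm) read; washed biofilms stained with 20 μM resazurin 30 min at 37 °C, then ethanol-fixed and crystal violet-stained, absorbance 595 nm.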

[2] = system: P. aeruginosa ATCC 9027; assay: Antibacterial activity, pre-exposure; assay type: cell-based, Pseudomonas aeruginosa; details: for Average inhibition %, biofilms biomass / Average inhibition %, biofilms viability / Average inhibition %, planktonic cells turbidity / Average inhibition %, planktonic cells viability: P. aeruginosa ATCC 9027, pre-exposure, ± SD
Method in brief: (§1)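 Compounds in DMSO were plated before bacteria were added (pre-exposure) and incubated 18 h aerobically at 37 °C with shaking. Planktonic cells were read by OD and resazurin fluorescence (20 μM final; ex 560/em 590 nm). Biofilms were read by resazurin, then crystal violet (A595) for total biomass.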

[3] = system: S. aureus ATCC 25923; assay: Antibacterial activity, pre-exposure (planktonic cells and biofilm formation); assay type: cell-based, Staphylococcus aureus; details: for Average inhibition %, biofilms biomass / Average inhibition %, biofilms viability / Average inhibition %, planktonic cells turbidity / Average inhibition %, planktonic cells viability: ± SD
Method in brief: as §1

[4] = system: A. baumannii NCTC 13423; assay: Antibacterial activity, pre-exposure; assay type: cell-based, Acinetobacter baumannii; details: for Average inhibition %, biofilms biomass / Average inhibition %, biofilms viability / Average inhibition %, planktonic cells turbidity / Average inhibition %, planktonic cells viability: A. baumannii NCTC 13423, pre-exposure, ± SD
Method in brief: as §1

2-Amino-2-(4-decylbenzyl)propane-1,3-diol [Compound 45]
Average inhibition %, biofilms biomass ([1]; 25 µM): 36.9 ± 3% | Average inhibition %, biofilms viability ([1]; 25 µM): 15.5 ± 10.9% | Average inhibition %, planktonic cells turbidity ([1]; 25 µM): 9.2 ± 8.6% | Average inhibition %, planktonic cells viability ([1]; 25 µM): 1 ± 1.7% | Average inhibition %, biofilms biomass ([1]; 50 µM): 39.5 ± 9% | Average inhibition %, biofilms viability ([1]; 50 µM): 25.2 ± 5.5% | Average inhibition %, planktonic cells turbidity ([1]; 50 µM): 28.1 ± 16.3% | Average inhibition %, planktonic cells viability ([1]; 50 µM): 22.5 ± 18.5% | Average inhibition %, biofilms biomass ([1]; 100 µM): 51.3 ± 5.8% | Average inhibition %, biofilms viability ([1]; 100 µM): 23.1 ± 10.2% | Average inhibition %, planktonic cells turbidity ([1]; 100 µM): 45.7 ± 12.8% | Average inhibition %, planktonic cells viability ([1]; 100 µM): 59.7 ± 16.4% | Average inhibition %, biofilms biomass ([1]; 200 µM): 47.7 ± 12.7% | Average inhibition %, biofilms viability ([1]; 200 µM): 17.1 ± 16.5% | Average inhibition %, planktonic cells turbidity ([1]; 200 µM): 53.9 ± 18.7% | Average inhibition %, planktonic cells viability ([1]; 200 µM): 70.7 ± 12.5% | Average inhibition %, biofilms biomass ([2]; 50 µM): 5 ± 3.4% | Average inhibition %, biofilms viability ([2]; 50 µM): 8.1 ± 10.9% | Average inhibition %, planktonic cells turbidity ([2]; 50 µM): 31.3 ± 5.3% | Average inhibition %, planktonic cells viability ([2]; 50 µM): 24.4 ± 2.7% | Average inhibition %, biofilms biomass ([2]; 100 µM): 2.5 ± 4.4% | Average inhibition %, biofilms viability ([2]; 100 µM): 4 ± 6.6% | Average inhibition %, planktonic cells turbidity ([2]; 100 µM): 41.8 ± 6% | Average inhibition %, planktonic cells viability ([2]; 100 µM): 30 ± 7.6% | Average inhibition %, biofilms biomass ([2]; 150 µM): 1.6 ± 2.8% | Average inhibition %, biofilms viability ([2]; 150 µM): 1.9 ± 2.9% | Average inhibition %, planktonic cells turbidity ([2]; 150 µM): 39.3 ± 3.3% | Average inhibition %, planktonic cells viability ([2]; 150 µM): 36.5 ± 11.5% | Average inhibition %, biofilms biomass ([2]; 200 µM): 0 ± 0% | Average inhibition %, biofilms viability ([2]; 200 µM): 0 ± 0% | Average inhibition %, planktonic cells turbidity ([2]; 200 µM): 40.7 ± 6.2% | Average inhibition %, planktonic cells viability ([2]; 200 µM): 22.9 ± 11.2% | MIC P. aeruginosa ATCC 9027 ([2]; pre-exposure, Inactive = no activity up to 200 μM, > = some inhibition but no MIC reached): Inactive | MIC S. aureus ATCC 25923 ([3]; lowest concentration with no visible growth (>90% inhibition of turbidity and viability of planktonic cells), 18 h): 5 to 10 µM | MIC ([3]; lowest concentration with no visible growth (>90% inhibition of turbidity and viability of planktonic cells), 18 h, read-out: MIC S. aureus ATCC 25923): 10 µM | Average inhibition %, biofilms biomass ([3]; pre-exposure, 5 µM): 45.3 ± 46.5% | Average inhibition %, biofilms viability ([3]; pre-exposure, 5 µM): 45.4 ± 46.1% | Average inhibition %, planktonic cells turbidity ([3]; pre-exposure, 5 µM): 45.7 ± 46.9% | Average inhibition %, planktonic cells viability ([3]; pre-exposure, 5 µM): 41.5 ± 50.3% | Average inhibition %, biofilms biomass ([3]; pre-exposure, 10 µM): 92.5 ± 4.8% | Average inhibition %, biofilms viability ([3]; pre-exposure, 10 µM): 98.9 ± 0.5% | Average inhibition %, planktonic cells turbidity ([3]; pre-exposure, 10 µM): 99 ± 0.7% | Average inhibition %, planktonic cells viability ([3]; pre-exposure, 10 µM): 99.8 ± 0.1% | Average inhibition %, biofilms biomass ([3]; pre-exposure, 15 µM): 91.8 ± 4.7% | Average inhibition %, biofilms viability ([3]; pre-exposure, 15 µM): 99.7 ± 0.1% | Average inhibition %, planktonic cells turbidity ([3]; pre-exposure, 15 µM): 98.9 ± 0.7% | Average inhibition %, planktonic cells viability ([3]; pre-exposure, 15 µM): 99.7 ± 0.1% | Average inhibition %, biofilms biomass ([3]; pre-exposure, 25 µM): 91.8 ± 5.6% | Average inhibition %, biofilms viability ([3]; pre-exposure, 25 µM): 99.7 ± 0% | Average inhibition %, planktonic cells turbidity ([3]; pre-exposure, 25 µM): 98.6 ± 0.6% | Average inhibition %, planktonic cells viability ([3]; pre-exposure, 25 µM): 99.8 ± 0.2% | MIC ([3]; pre-exposure, lowest value among replicates, read-out: MIC S. aureus ATCC 25923, for some replicates): 5 µM | MIC (S. aureus) ([3]; supplementary molecular formula strings sheet): 5 to 10 µM | Average inhibition %, biofilms biomass ([4]; 10 µM): 0 ± 0% | Average inhibition %, biofilms viability ([4]; 10 µM): 2.1 ± 3.6% | Average inhibition %, planktonic cells turbidity ([4]; 10 µM): 0 ± 0% | Average inhibition %, planktonic cells viability ([4]; 10 µM): 4.8 ± 2.9% | Average inhibition %, biofilms biomass ([4]; 15 µM): 1 ± 1.8% | Average inhibition %, biofilms viability ([4]; 15 µM): 0.5 ± 0.8% | Average inhibition %, planktonic cells turbidity ([4]; 15 µM): 0 ± 0% | Average inhibition %, planktonic cells viability ([4]; 15 µM): 2.8 ± 3.8% | Average inhibition %, biofilms biomass ([4]; 25 µM): 0 ± 0% | Average inhibition %, biofilms viability ([4]; 25 µM): 2.7 ± 4% | Average inhibition %, planktonic cells turbidity ([4]; 25 µM): 0 ± 0% | Average inhibition %, planktonic cells viability ([4]; 25 µM): 0 ± 0% | Average inhibition %, biofilms biomass ([4]; 50 µM): 0.7 ± 1.3% | Average inhibition %, biofilms viability ([4]; 50 µM): 6.5 ± 7.4% | Average inhibition %, planktonic cells turbidity ([4]; 50 µM): 0 ± 0% | Average inhibition %, planktonic cells viability ([4]; 50 µM): 0 ± 0% | MIC A. baumannii NCTC 13423 ([4]; pre-exposure, Inactive = no activity up to 50 μM, > = some inhibition but no MIC reached): Inactive
